This note sets out measurements from US20240116985A1, “STAPLED PEPTIDES AND METHODS THEREOF” (priority 2020, published 2024).

Series [1] addresses T1, full-length B-Catenin (Uniprot ID P35222) (Homo sapiens, UniProt P35222).
T1 construct: 65 nM full-length B-Catenin (Uniprot ID P35222)
T1 sequence (P35222 1-781): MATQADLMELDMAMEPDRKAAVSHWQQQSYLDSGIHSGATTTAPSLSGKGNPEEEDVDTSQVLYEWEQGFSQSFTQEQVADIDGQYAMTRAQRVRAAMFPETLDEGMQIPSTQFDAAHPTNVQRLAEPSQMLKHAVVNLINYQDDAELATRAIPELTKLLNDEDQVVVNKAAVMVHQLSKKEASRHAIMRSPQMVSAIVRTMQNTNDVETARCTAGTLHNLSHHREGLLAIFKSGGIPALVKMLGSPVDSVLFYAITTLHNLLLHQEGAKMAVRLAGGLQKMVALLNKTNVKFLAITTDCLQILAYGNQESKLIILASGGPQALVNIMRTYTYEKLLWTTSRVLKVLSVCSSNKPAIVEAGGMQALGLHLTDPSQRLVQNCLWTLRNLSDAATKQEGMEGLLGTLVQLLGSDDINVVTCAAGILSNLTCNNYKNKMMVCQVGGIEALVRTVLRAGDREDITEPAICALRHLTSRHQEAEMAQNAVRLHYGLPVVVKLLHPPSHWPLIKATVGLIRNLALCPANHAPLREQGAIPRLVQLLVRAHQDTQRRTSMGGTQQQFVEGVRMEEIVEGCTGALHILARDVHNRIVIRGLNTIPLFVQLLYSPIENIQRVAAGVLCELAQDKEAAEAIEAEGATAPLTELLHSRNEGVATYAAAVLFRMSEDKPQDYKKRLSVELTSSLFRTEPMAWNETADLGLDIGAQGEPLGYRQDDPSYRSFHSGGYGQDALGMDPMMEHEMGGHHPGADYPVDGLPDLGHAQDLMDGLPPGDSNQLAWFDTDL
Briefly: Alphascreen binding assay (beta-catenin / biotin-TCF4 10-53). In outline: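 AlphaScreen (Ni-chelate beads) competition in 50 mM Tris pH 8.0, 250 mM NaCl with detergents and 0.1% BSA. Peptide titrated 10 uM–5 nM against 65 nM human β-catenin bound to 10 nM biotinylated TCF4 10-53, 15 min then 60 min with beads, both at 20 °C; 1:1 Hill-slope fit.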

The next series is described as follows: CHI Log D procedure. The class given is physicochemical. Particulars: for CHI Log D: pH 7.4.

As to `CC(=O)N1CCC[C@]12CC=CCCCC1(CCCC=CCCCCCC[C@@](C)(C(=O)N[C@@H](Cc3ccccc3)C(=O)N[C@@H](Cc3c[nH]c4ccccc34)C(=O)N[C@@H](CCC(N)=O)C(N)=O)NC(=O)[C@H](C(C)C)NC(=O)[C@H](Cc3ccc(C(F)(F)F)cc3)NC(=O)[C@H](C)NC(=O)[C@H](C)NC(=O)[C@H](CC(=O)O)NC(=O)[C@H](CC(=O)O)NC1=O)NC(=O)[C@H](C)NC(=O)[C@H](CC(=O)O)NC2=O` (stereo partly drawn) [I-242, Ac-PL3-Asp-Ala-B5-Asp-Asp-Ala-Ala-4F3MeF-Val-S8-Phe-Trp-Gln-NH2], the EC50 (in general, the concentration giving half of the maximal effect) in series [1] stood at 4900 nM. For the same molecule, the “CHI Log D” value in the series “CHI Log D procedure” worked out at 2.098.

The molecule `CC(=O)N1CCC[C@]12CC=CCCCC1(CCCC=CCCCCCC[C@@](C)(C(=O)N[C@@H](Cc3ccccc3)C(=O)N[C@@H](Cc3c[nH]c4ccccc34)C(=O)N[C@@H](CCC(N)=O)C(N)=O)NC(=O)[C@H](C(C)C)NC(=O)[C@H](Cc3ccc(C(F)(F)F)cc3)NC(=O)[C@H](C)NC(=O)[C@H](C)NC(=O)[C@H](CC(=O)O)NC(=O)[C@H](CC(=O)O)NC1=O)NC(=O)[C@H](C)NC(=O)[C@H](CC(=O)O)NC2=O` (stereo partly drawn) [I-243, Ac-PL3-Asp-Ala-B5-Asp-Asp-Ala-Ala-4F3MeF-Val-S8-Phe-Trp-Gln-NH2] gave an EC50 in series [1] of 4900 nM. In the series “CHI Log D procedure”, the “CHI Log D” value came out at 2.098.

`CC(=O)N1CCC[C@]12CC=CCCCC1(CCCC=CCCCCCC[C@@](C)(C(=O)N[C@@H](Cc3ccccc3)C(=O)N[C@@H](Cc3c[nH]c4ccccc34)C(=O)N[C@@H](CCC(N)=O)C(N)=O)NC(=O)[C@H](C(C)C)NC(=O)[C@H](Cc3ccccc3)NC(=O)[C@H](C)NC(=O)[C@H](C)NC(=O)[C@H](Cc3cccc(C(F)(F)F)c3)NC(=O)[C@H](CC(=O)O)NC1=O)NC(=O)[C@H](C)NC(=O)[C@H](CC(=O)O)NC2=O` (stereo partly drawn) [I-244, Ac-PL3-Asp-Ala-B5-Asp-3F3MeF-Ala-Ala-Phe-Val-S8-Phe-Trp-Gln-NH2]: in series [1], the EC50 came out at 2960 nM. The “CHI Log D” value in the series “CHI Log D procedure” came to 3.101.

`CC(=O)N1CCC[C@]12CC=CCCCC1(CCCC=CCCCCCC[C@@](C)(C(=O)N[C@@H](Cc3ccccc3)C(=O)N[C@@H](Cc3c[nH]c4ccccc34)C(=O)N[C@@H](CCC(N)=O)C(N)=O)NC(=O)[C@H](C(C)C)NC(=O)[C@H](Cc3ccccc3)NC(=O)[C@H](C)NC(=O)[C@H](C)NC(=O)[C@H](Cc3ccc(C(F)(F)F)cc3)NC(=O)[C@H](CC(=O)O)NC1=O)NC(=O)[C@H](C)NC(=O)[C@H](CC(=O)O)NC2=O` (stereo partly drawn) [I-246, Ac-PL3-Asp-Ala-B5-Asp-4F3MeF-Ala-Ala-Phe-Val-S8-Phe-Trp-Gln-NH2] gave an EC50 in series [1] of 3970 nM. For the same molecule, the “CHI Log D” value in the series “CHI Log D procedure” stood at 3.01.

`CC(=O)N1CCC[C@]12CC=CCCCC1(CCCC=CCCCCCC[C@@](C)(C(=O)N[C@@H](Cc3cccc(C(F)(F)F)c3)C(=O)N[C@@H](Cc3c[nH]c4ccccc34)C(=O)N[C@@H](CCC(N)=O)C(N)=O)NC(=O)[C@H](C(C)C)NC(=O)[C@H](Cc3ccccc3)NC(=O)[C@H](C)NC(=O)[C@H](C)NC(=O)[C@H](CC(=O)O)NC(=O)[C@H](CC(=O)O)NC1=O)NC(=O)[C@H](C)NC(=O)[C@H](CC(=O)O)NC2=O` (stereo partly drawn) [I-248, Ac-PL3-Asp-Ala-B5-Asp-Asp-Ala-Ala-Phe-Val-S8-3F3MeF-Trp-Gln-NH2] registered an EC50 in series [1] of 2830 nM. In addition, the “CHI Log D” value in the series “CHI Log D procedure” was determined as 2.263.

As to `CC(=O)N1CCC[C@]12CC=CCCCC1(CCCC=CCCCCCC[C@@](C)(C(=O)N[C@@H](Cc3cccc(C(F)(F)F)c3)C(=O)N[C@@H](Cc3c[nH]c4ccccc34)C(=O)N[C@@H](CCC(N)=O)C(N)=O)NC(=O)[C@H](C(C)C)NC(=O)[C@H](Cc3ccccc3)NC(=O)[C@H](C)NC(=O)[C@H](C)NC(=O)[C@H](CC(=O)O)NC(=O)[C@H](CC(=O)O)NC1=O)NC(=O)[C@H](C)NC(=O)[C@H](CC(=O)O)NC2=O` (stereo partly drawn) [I-249, Ac-PL3-Asp-Ala-B5-Asp-Asp-Ala-Ala-Phe-Val-S8-3F3MeF-Trp-Gln-NH2], the response in series [1] was half-maximal at 2830 nM (EC50). In the series “CHI Log D procedure”, the “CHI Log D” value amounted to 2.263.

In turn, `CC(=O)N1CCC[C@]12CC=CCCCC1(CCCC=CCCCCCC[C@@](C)(C(=O)N[C@@H](Cc3cccc(C(F)(F)F)c3)C(=O)N[C@@H](Cc3c[nH]c4ccccc34)C(=O)N[C@@H](CCC(N)=O)C(N)=O)NC(=O)[C@H](C(C)C)NC(=O)[C@H](Cc3ccccc3)NC(=O)[C@H](C)NC(=O)[C@H](C)NC(=O)[C@H](CC(=O)O)NC(=O)[C@H](CC(=O)O)NC1=O)NC(=O)[C@H](C)NC(=O)[C@H](CC(=O)O)NC2=O` (stereo partly drawn) [I-250, Ac-PL3-Asp-Ala-B5-Asp-Asp-Ala-Ala-Phe-Val-S8-3F3MeF-Trp-Gln-NH2] gave an EC50 in series [1] of 1200 nM. Besides, the “CHI Log D” value in “CHI Log D procedure” turned out to be 2.299.

In series [1], `CC(=O)N1CCC[C@]12CC=CCCCC1(CCCC=CCCCCCC[C@@](C)(C(=O)N[C@@H](Cc3cccc(C(F)(F)F)c3)C(=O)N[C@@H](Cc3c[nH]c4ccccc34)C(=O)N[C@@H](CCC(N)=O)C(N)=O)NC(=O)[C@H](C(C)C)NC(=O)[C@H](Cc3ccccc3)NC(=O)[C@H](C)NC(=O)[C@H](C)NC(=O)[C@H](CC(=O)O)NC(=O)[C@H](CC(=O)O)NC1=O)NC(=O)[C@H](C)NC(=O)[C@H](CC(=O)O)NC2=O` (stereo partly drawn) [I-251, Ac-PL3-Asp-Ala-B5-Asp-Asp-Ala-Ala-Phe-Val-S8-3F3MeF-Trp-Gln-NH2] gave an EC50 of 1200 nM. In addition, the “CHI Log D” value in “CHI Log D procedure” came to 2.299.

Turning to `CC(=O)N1CCC[C@]12CC=CCCCC1(CCCC=CCCCCCC[C@@](C)(C(=O)N[C@@H](Cc3ccc(C(F)(F)F)cc3)C(=O)N[C@@H](Cc3c[nH]c4ccccc34)C(=O)N[C@@H](CCC(N)=O)C(N)=O)NC(=O)[C@H](C(C)C)NC(=O)[C@H](Cc3ccccc3)NC(=O)[C@H](C)NC(=O)[C@H](C)NC(=O)[C@H](CC(=O)O)NC(=O)[C@H](CC(=O)O)NC1=O)NC(=O)[C@H](C)NC(=O)[C@H](CC(=O)O)NC2=O` (stereo partly drawn) [I-252, Ac-PL3-Asp-Ala-B5-Asp-Asp-Ala-Ala-Phe-Val-S8-4F3MeF-Trp-Gln-NH2], the half-maximal effective concentration (EC50) in series [1] was determined as 3690 nM. The “CHI Log D” value in “CHI Log D procedure” was determined as 2.214.

Regarding `CC(=O)N1CCC[C@]12CC=CCCCC1(CCCC=CCCCCCC[C@@](C)(C(=O)N[C@@H](Cc3ccc(C(F)(F)F)cc3)C(=O)N[C@@H](Cc3c[nH]c4ccccc34)C(=O)N[C@@H](CCC(N)=O)C(N)=O)NC(=O)[C@H](C(C)C)NC(=O)[C@H](Cc3ccccc3)NC(=O)[C@H](C)NC(=O)[C@H](C)NC(=O)[C@H](CC(=O)O)NC(=O)[C@H](CC(=O)O)NC1=O)NC(=O)[C@H](C)NC(=O)[C@H](CC(=O)O)NC2=O` (stereo partly drawn) [I-253, Ac-PL3-Asp-Ala-B5-Asp-Asp-Ala-Ala-Phe-Val-S8-4F3MeF-Trp-Gln-NH2], in series [1], the EC50 came out at 3690 nM. In “CHI Log D procedure”, the “CHI Log D” value worked out at 2.214.

Regarding `CC(=O)N1CCC[C@]12CC=CCCCC1(CCCC=CCCCCCC[C@@](C)(C(=O)N[C@@H](Cc3ccc(C(F)(F)F)cc3)C(=O)N[C@@H](Cc3c[nH]c4ccccc34)C(=O)N[C@@H](CCC(N)=O)C(N)=O)NC(=O)[C@H](C(C)C)NC(=O)[C@H](Cc3ccccc3)NC(=O)[C@H](C)NC(=O)[C@H](C)NC(=O)[C@H](CC(=O)O)NC(=O)[C@H](CC(=O)O)NC1=O)NC(=O)[C@H](C)NC(=O)[C@H](CC(=O)O)NC2=O` (stereo partly drawn) [I-254, Ac-PL3-Asp-Ala-B5-Asp-Asp-Ala-Ala-Phe-Val-S8-4F3MeF-Trp-Gln-NH2], a half-maximal effect in series [1] (EC50) was put at 1960 nM. In the series “CHI Log D procedure”, the “CHI Log D” value worked out at 2.232.

For `CC(=O)N1CCC[C@]12CC=CCCCC1(CCCC=CCCCCCC[C@@](C)(C(=O)N[C@@H](Cc3ccc(C(F)(F)F)cc3)C(=O)N[C@@H](Cc3c[nH]c4ccccc34)C(=O)N[C@@H](CCC(N)=O)C(N)=O)NC(=O)[C@H](C(C)C)NC(=O)[C@H](Cc3ccccc3)NC(=O)[C@H](C)NC(=O)[C@H](C)NC(=O)[C@H](CC(=O)O)NC(=O)[C@H](CC(=O)O)NC1=O)NC(=O)[C@H](C)NC(=O)[C@H](CC(=O)O)NC2=O` (stereo partly drawn) [I-255, Ac-PL3-Asp-Ala-B5-Asp-Asp-Ala-Ala-Phe-Val-S8-4F3MeF-Trp-Gln-NH2], the EC50 in series [1] worked out at 1960 nM. Further, in “CHI Log D procedure”, the “CHI Log D” value was found to be 2.232.

In series [1], `CC(=O)N1CCC[C@]12CC=CCCCC1(CCCC=CCCCCCC[C@@](C)(C(=O)N[C@@H](Cc3ccccc3)C(=O)N[C@@H](Cc3c[nH]c4ccccc34)C(=O)N[C@@H](CCC(N)=O)C(N)=O)NC(=O)[C@H](C(C)C)NC(=O)[C@H](Cc3ccccc3)NC(=O)[C@H](C)NC(=O)[C@H](C)NC(=O)[C@H](Cc3ccc(F)c(F)c3)NC(=O)[C@H](CC(=O)O)NC1=O)NC(=O)[C@H](C)NC(=O)[C@H](CC(=O)O)NC2=O` (stereo partly drawn) [I-259, Ac-PL3-Asp-Ala-B5-Asp-34FF-Ala-Ala-Phe-Val-S8-Phe-Trp-Gln-NH2] yielded an EC50 of 4180 nM. The chromatographic logD (in general, lipophilicity estimated from chromatographic retention) in “CHI Log D procedure” (pH 7.4, CHI Log D) is 2.9.
